Tested on: PC3 cells
Assay: NAMPT Cell Proliferation Assay
Assay type: cell-based
Details: Homo sapiens, PC-3, 120 h, 5 days incubation, cell viability by Cell Titer Glo
Description: NAMPT Cell Proliferation Assay
PC3 cells were seeded in 96-well black plates (Corning #3904) at 500 cells)Owell in 90 µl of RPMI media containing 10% heat-inactivated FBS and incubated overnight at 37° C. and 5% CO2 to allow cells to attach to wells. The following day, test compounds were serially diluted in neat DMSO to 1000× final concentrations prior to dilution with RPMI media to 10× and 1% DMSO. […] of the 10× compounds were then transferred to wells containing cells to produce a dose response of 10-fold dilutions from […] to 1×10^−[…]. Cells were incubated for 5 days at 37° C. and 5% CO2, then cell viability was measured using Cell Titer Glo reagent (Promega #G7571). Percent inhibition values were calculated and fitted to a sigmoidal dose response curves using Assay Explorer software to determine IC50s.

IC50	Compound
3.35 nM	O=C(Nc1ccc(C2CCN(C(=O)CC3CCCC3)CC2)cc1)C1CN(c2cccnn2)C1 [Example 397, N-{4-[1-(cyclopentylacetyl)piperidin-4-yl]phenyl}-1-(pyridazin-3-yl)azetidine-3-carboxamide]
79.5 nM	O=C(Nc1ccc(OC2CCN(C(=O)c3cscn3)CC2)cc1)C1CN(c2ccnnc2)C1 [Example 272, 1-(pyridazin-4-yl)-N-(4-{[1-(1,3-thiazol-4-ylcarbonyl)piperidin-4-yl]oxy}phenyl)azetidine-3-carboxamide]
300 nM	CC(=O)N1CCC(c2ccc(NC(=O)C3CN(c4cccnc4C)C3)cc2)CC1 [Example 178, N-[4-(1-acetylpiperidin-4-yl)phenyl]-1-(2-methylpyridin-3-yl)azetidine-3-carboxamide]
0.18 nM	O=C(Nc1ccc(C2CCN(C(=O)c3ccoc3)CC2)cc1)C1CN(c2cccnc2)C1 [Example 104, N-{4-[1-(furan-3-ylcarbonyl)piperidin-4-yl]phenyl}-1-(pyridin-3-yl)azetidine-3-carboxamide]
1.28 nM	O=C(Nc1ccc(O[C@@H]2CCN(C(=O)c3cccc(Cl)c3)C2)cc1)C1CN(c2cccnn2)C1 [Example 506, N-(4-{[(3R)-1-(3-chlorobenzoyl)pyrrolidin-3-yl]oxy}phenyl)-1-(pyridazin-3-yl)azetidine-3-carboxamide]
78 nM	Cc1cccc(C(=O)N2CCC(S(=O)(=O)c3ccc(NC(=O)C4CN(c5cccnn5)C4)cc3)CC2)c1 [Example 580, N-(4-{[1-(3-methylbenzoyl)piperidin-4-yl]sulfonyl}phenyl)-1-(pyridazin-3-yl)azetidine-3-carboxamide]
5.3 nM	O=C(Nc1ccc(C2CCN(C(=O)CC3CCCCC3)CC2)cc1)[C@H]1CCN(c2cccnn2)C1 [Example 704, (3S)-N-{4-[1-(cyclohexylacetyl)piperidin-4-yl]phenyl}-1-(pyridazin-3-yl)pyrrolidine-3-carboxamide]
17.6 nM	O=C(Nc1ccc(C2CCN(C(=O)Cc3ccc(F)cc3)CC2)cc1)C1CN(c2ccnnc2)C1 [Example 531, N-(4-{1-[(4-fluorophenyl)acetyl]piperidin-4-yl}phenyl)-1-(pyridazin-4-yl)azetidine-3-carboxamide]
65 nM	O=C(Nc1ccc(C2CCN(C(=O)c3ccc(C(F)(F)F)cc3)CC2)cc1)[C@H]1CCN(c2cccnn2)C1 [Example 699, (3S)-1-(pyridazin-3-yl)-N-(4-{1-[4-(trifluoromethyl)benzoyl]piperidin-4-yl}phenyl)pyrrolidine-3-carboxamide]
75.2 nM	O=C(Nc1ccc(C2CCN(C(=O)c3cccc(OC(F)(F)F)c3)CC2)cc1)[C@H]1CCN(c2cccnn2)C1 [Example 701, (3S)-1-(pyridazin-3-yl)-N-(4-{1-[3-(trifluoromethoxy)benzoyl]piperidin-4-yl}phenyl)pyrrolidine-3-carboxamide]
8.99 nM	O=C(Nc1ccc(OC2CCN(C(=O)C3CCCO3)CC2)cc1)C1CN(c2cccnn2)C1 (stereo not drawn) [Example 221, 1-(pyridazin-3-yl)-N-(4-{[1-(tetrahydrofuran-2-ylcarbonyl)piperidin-4-yl]oxy}phenyl)azetidine-3-carboxamide]
68.9 nM	O=C(Nc1ccc(OC2CCN(C(=O)c3ccccn3)CC2)cc1)C1CN(c2ccnnc2)C1 [Example 296, 1-(pyridazin-4-yl)-N-(4-{[1-(pyridin-2-ylcarbonyl)piperidin-4-yl]oxy}phenyl)azetidine-3-carboxamide]
8.43 nM	O=C(Nc1ccc(C2CCN(C(=O)c3cc(C(F)(F)F)ccc3F)CC2)cc1)[C@H]1CCN(c2cccnn2)C1 [Example 703, (3S)-N-(4-{1-[2-fluoro-5-(trifluoromethyl)benzoyl]piperidin-4-yl}phenyl)-1-(pyridazin-3-yl)pyrrolidine-3-carboxamide]
6.14 nM	Cc1ccsc1C(=O)N1CCC(Oc2ccc(NC(=O)C3CN(c4cccnc4)C3)cc2)CC1 [Example 59, N-[4-({1-[(3-methylthiophen-2-yl)carbonyl]piperidin-4-yl}oxy)phenyl]-1-(pyridin-3-yl)azetidine-3-carboxamide]
1.12 nM	O=C(Nc1ccc(C2CCN(C(=O)c3cc(F)ccc3F)CC2)cc1)C1CN(c2cccnn2)C1 [Example 416, N-{4-[1-(2,5-difluorobenzoyl)piperidin-4-yl]phenyl}-1-(pyridazin-3-yl)azetidine-3-carboxamide]
2.75 nM	Cc1ccc(N2CC(C(=O)Nc3ccc(C4CCN(C(=O)c5ccccc5F)CC4)cc3)C2)nn1 [Example 851, N-{4-[1-(2-fluorobenzoyl)piperidin-4-yl]phenyl}-1-(6-methylpyridazin-3-yl)azetidine-3-carboxamide]
715 nM	O=C(Nc1ccc(O[C@@H]2CCN(C(=O)Cc3cccc(C(F)(F)F)c3)C2)cc1)C1CN(c2ccnnc2)C1 [Example 470, 1-(pyridazin-4-yl)-N-(4-{[(3R)-1-{[3-(trifluoromethyl)phenyl]acetyl}pyrrolidin-3-yl]oxy}phenyl)azetidine-3-carboxamide]

IC50	Compound
7.28 nM	O=C(Nc1ccc(C2CCN(C(=O)c3ccc(F)cc3)CC2)cc1)C1CN(c2cccnn2)C1 [Example 349, N-{4-[1-(4-fluorobenzoyl)piperidin-4-yl]phenyl}-1-(pyridazin-3-yl)azetidine-3-carboxamide]
86.7 nM	CC(C)Cn1cc(-c2ccc(C(=O)N[C@H]3CCN(c4cccnn4)C3)s2)cn1 [Example 606, 5-[1-(2-methylpropyl)-1H-pyrazol-4-yl]-N-[(3S)-1-(pyridazin-3-yl)pyrrolidin-3-yl]thiophene-2-carboxamide]
1.81 nM	O=C(Nc1ccc(C2CCN(C(=O)CCN3CCCCC3)CC2)cc1)C1CN(c2cccnc2)C1 [Example 130, N-(4-{1-[3-(piperidin-1-yl)propanoyl]piperidin-4-yl}phenyl)-1-(pyridin-3-yl)azetidine-3-carboxamide]
60 nM	O=C(Nc1ccc(OC2CCN(C(=O)c3ccc(F)cc3)CC2)cc1)[C@H]1CCN(c2cccnn2)C1 [Example 800, (3S)-N-(4-{[1-(4-fluorobenzoyl)piperidin-4-yl]oxy}phenyl)-1-(pyridazin-3-yl)pyrrolidine-3-carboxamide]
6.32 nM	O=C(Nc1ccc(C2CCN(C(=O)Cc3ccc(Cl)c(Cl)c3)CC2)cc1)C1CN(c2cccnn2)C1 [Example 374, N-(4-{1-[(3,4-dichlorophenyl)acetyl]piperidin-4-yl}phenyl)-1-(pyridazin-3-yl)azetidine-3-carboxamide]
10.5 nM	O=C(Nc1ccc(OC2CCN(C(=O)c3ccc(F)c(F)c3)CC2)cc1)C1CN(c2cccnn2)C1 [Example 234, N-(4-{[1-(3,4-difluorobenzoyl)piperidin-4-yl]oxy}phenyl)-1-(pyridazin-3-yl)azetidine-3-carboxamide]
1150 nM	CC(C)Cn1cc(-c2cc(C(=O)N[C@H]3CCN(c4cccnn4)C3)cs2)cn1 [Example 664, 5-[1-(2-methylpropyl)-1H-pyrazol-4-yl]-N-[(3S)-1-(pyridazin-3-yl)pyrrolidin-3-yl]thiophene-3-carboxamide]
0.6 nM	Cc1ccsc1C(=O)N1CCC(c2ccc(NC(=O)[C@H]3CCN(c4cccnn4)C3)cc2)CC1 [Example 679, (3S)-N-(4-{1-[(3-methylthiophen-2-yl)carbonyl]piperidin-4-yl}phenyl)-1-(pyridazin-3-yl)pyrrolidine-3-carboxamide]
3.01 nM	CC(C)C(=O)N1CCC(Oc2ccc(NC(=O)C3CN(c4cccnc4)C3)cc2)CC1 [Example 46, N-(4-{[1-(2-methylpropanoyl)piperidin-4-yl]oxy}phenyl)-1-(pyridin-3-yl)azetidine-3-carboxamide]
14.5 nM	O=C(Nc1ccc(C2CCN(C(=O)c3cccc(Cl)c3)CC2)cc1)[C@H]1CCN(c2cccnn2)C1 [Example 709, (3S)-N-{4-[1-(3-chlorobenzoyl)piperidin-4-yl]phenyl}-1-(pyridazin-3-yl)pyrrolidine-3-carboxamide]
118 nM	CC[C@H](C(=O)N1CCC(S(=O)(=O)c2ccc(NC(=O)C3CN(c4cccnn4)C3)cc2)CC1)c1ccccc1 [Example 571, N-[4-({1-[(2S)-2-phenylbutanoyl]piperidin-4-yl}sulfonyl)phenyl]-1-(pyridazin-3-yl)azetidine-3-carboxamide]
98.3 nM	O=C(Nc1ccc(O[C@H]2CCN(C(=O)c3cc(F)cc(F)c3)C2)cc1)[C@H]1CCN(c2cccnn2)C1 [Example 826, (3S)—N-(4-{[(3S)-1-(3,5-difluorobenzoyl)pyrrolidin-3-yl]oxy}phenyl)-1-(pyridazin-3-yl)pyrrolidine-3-carboxamide]
22.7 nM	O=C(Nc1ccc(OC2CCN(C(=O)CC3CCOCC3)CC2)cc1)[C@H]1CCN(c2cccnc2)C1 [Example 11, (3S)-1-(pyridin-3-yl)-N-(4-{[1-(tetrahydro-2H-pyran-4-ylacetyl)piperidin-4-yl]oxy}phenyl)pyrrolidine-3-carboxamide]
6.46 nM	O=C(Nc1ccc(OC2CCN(C(=O)c3ccc(F)cc3F)CC2)cc1)C1CN(c2cccnn2)C1 [Example 229, N-(4-{[1-(2,4-difluorobenzoyl)piperidin-4-yl]oxy}phenyl)-1-(pyridazin-3-yl)azetidine-3-carboxamide]
12.1 nM	O=C(Nc1ccc(O[C@@H]2CCN(C(=O)C3CCCO3)C2)cc1)C1CN(c2cccnn2)C1 (stereo partly drawn) [Example 499, 1-(pyridazin-3-yl)-N-(4-{[(3R)-1-(tetrahydrofuran-2-ylcarbonyl)pyrrolidin-3-yl]oxy}phenyl)azetidine-3-carboxamide]
19.2 nM	O=C(Nc1ccc(O[C@@H]2CCN(C(=O)c3ccc(F)cc3)C2)cc1)[C@H]1CCN(c2cccnn2)C1 [Example 777, (3S)-N-(4-{[(3R)-1-(4-fluorobenzoyl)pyrrolidin-3-yl]oxy}phenyl)-1-(pyridazin-3-yl)pyrrolidine-3-carboxamide]

— US20130303509A1, “NAMPT INHIBITORS” (AbbVie Inc., priority 2012, published 2013)
